The target in one test is T1, mGluR5 receptor (pig) (Sus scrofa, UniProt I3LUI7).
T1 construct: 450 μg protein from brain homogenate is incubated with 5 nM ^3[H]-MPEP; from tissue; host or cells: pig brain halves without medulla, cerebellum and pons
Description: [3H]-MPEP bond in the mGluR5 receptor bond assay (pig brain homogenate). In kind it is binding. To be noted: 5 nM [3H]-MPEP; pig brain homogenate. The protocol: I. Method for Determining the Inhibition of the [^3H]-MPEP Bond in the mGluR5 Receptor Bond Assay
Pig brain homogenate is produced by homogenisation (Polytron PT 3000, Kinematica AG, 10,000 rpm for 90 seconds) of pig brain halves without medulla, cerebellum and pons in buffer pH 8.0 (30 mM Hepes, Sigma, order no. H3375+1 tablet complete to 100 ml, Roche Diagnostics, order no. 1836145) in the ratio 1:20 (brain weight/volume) and differential centrifugation at 900×g and 40,000×g. In each case, 450 μg protein from brain homogenate is incubated with 5 nM ^3[H]-MPEP (Tocris, order no. […]
Thereafter, the batches are filtered with the help of a Brandel Cell Harvester (Brandel, TYP Robotic 9600) on unifilter plates with glass fibre filter mats (Perkin Elmer, order no. 6005177) and subsequently washed with buffer (as above) 3 times with in each case 250 μl per sample. The filter plates are subsequently dried for 60 min at 55° C. 30 μL Ultima Gold™ scintillator (Packard BioScience, order no. 6013159) is subsequently added per well and the samples are measured after 3 hours on the β-counter (Mikrobeta, Perkin Elmer). The unspecific bond is determined by addition of 10 μM MPEP (Tocris, order no. 1212).

For another test, the system named is rats. Description: Formaline test in rats (phase 2, pain rate). In kind it is in vivo, rat. The note with it: i.v. administration at 21.5 mg/kg, formaline test phase 2. The protocol:
III. Formaline Test in Rats:
The formaline test (Dubuisson, D. and Dennis, S. G., 1977, Pain, 4, 161-174) represents a model for acute and chronic pain. A biphasic nociceptive reaction, which is recorded by observation of three clearly differentiable behavioural patterns, is induced by a single formaline injection into the dorsal side of a rear paw in freely mobile test animals. The reaction has two phases: Phase 1=Immediate reaction (duration up to 10 min; paw shaking, licking), Phase 2=Late reaction (after a rest phase; likewise, paw shaking, licking; duration up to 60 min). The 1st phase reflects a direct stimulation of the peripheral nocisensors with high spinal nociceptive input or glutamate release (acute pain phase); the 2nd phase reflects a spinal and peripheral hypersensitisation (chronic pain phase). In the investigations presented here, the chronic pain component (phase 2) was evaluated.
Formaline with a volume of 50 μl and a concentration of 5% is administered subcutaneously into the dorsal side of the right rear paw of each animal. […] The calculation of PR is performed on the basis of a numerical weighting (=in each case factor 1, 2, 3) of the observed forms of behaviour (corresponding behavioural score 1, 2, 3) and is calculated with the following formula: […]

The source of these data is US20090182020A1, “SUBSTITUTED BIS(HETERO)AROMATIC N--ETHYLPROPIOLAMIDES AND USE THEREOF FOR PRODUCTION OF MEDICAMENTS” (GRUNENTHAL GMBH, priority 2005, published 2009).

T1 sequence (I3LUI7 19-1212): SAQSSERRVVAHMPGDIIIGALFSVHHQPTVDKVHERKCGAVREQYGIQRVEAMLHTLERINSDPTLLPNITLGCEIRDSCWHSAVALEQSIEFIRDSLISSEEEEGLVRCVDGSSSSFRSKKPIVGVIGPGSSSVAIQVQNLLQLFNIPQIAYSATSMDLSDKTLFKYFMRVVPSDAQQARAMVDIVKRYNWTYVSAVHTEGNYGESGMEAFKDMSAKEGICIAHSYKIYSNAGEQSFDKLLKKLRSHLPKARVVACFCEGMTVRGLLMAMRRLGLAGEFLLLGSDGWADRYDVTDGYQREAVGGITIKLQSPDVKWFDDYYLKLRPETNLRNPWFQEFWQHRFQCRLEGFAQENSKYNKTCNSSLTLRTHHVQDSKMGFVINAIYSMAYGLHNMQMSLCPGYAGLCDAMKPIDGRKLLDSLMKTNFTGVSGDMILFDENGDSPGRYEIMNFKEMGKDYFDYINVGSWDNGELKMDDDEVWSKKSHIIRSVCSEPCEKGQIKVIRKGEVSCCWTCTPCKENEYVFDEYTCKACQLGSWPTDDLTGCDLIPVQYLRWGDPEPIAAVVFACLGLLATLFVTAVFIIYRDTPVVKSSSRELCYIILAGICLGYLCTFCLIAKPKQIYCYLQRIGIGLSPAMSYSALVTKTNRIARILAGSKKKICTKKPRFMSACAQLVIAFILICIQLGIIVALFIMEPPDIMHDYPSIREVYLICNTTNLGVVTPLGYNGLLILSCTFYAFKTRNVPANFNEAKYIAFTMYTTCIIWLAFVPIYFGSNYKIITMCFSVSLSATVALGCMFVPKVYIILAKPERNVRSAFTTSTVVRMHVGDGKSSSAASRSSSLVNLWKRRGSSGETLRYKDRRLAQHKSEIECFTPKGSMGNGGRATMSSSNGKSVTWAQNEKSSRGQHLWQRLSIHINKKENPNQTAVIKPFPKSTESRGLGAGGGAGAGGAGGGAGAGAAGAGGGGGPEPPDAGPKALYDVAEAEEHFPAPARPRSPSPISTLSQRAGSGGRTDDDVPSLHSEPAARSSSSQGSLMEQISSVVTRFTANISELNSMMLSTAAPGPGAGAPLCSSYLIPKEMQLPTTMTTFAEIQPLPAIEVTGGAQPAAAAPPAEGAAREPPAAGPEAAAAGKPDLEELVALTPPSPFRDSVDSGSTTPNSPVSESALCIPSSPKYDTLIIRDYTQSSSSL

On to `CN(CCc1ccccc1)C(=O)C#Cc1cccc(Cl)c1` [Example 1, 3-(3-chlorophenyl)-N-methyl-N-phenethylpropiolamide], for which the half-maximal inhibitory concentration (IC50) on mGluR5 receptor (pig) came to 12 nM. Also, in the test with rats, the “inhibition of the pain reaction” value is listed as 60%.

In turn, `CC(C)N(CCc1ccccc1)C(=O)C#Cc1cccc(Cl)c1` [Example 238, 3-(3-chlorophenyl)-N-isopropyl-N-phenethylpropiolamide] came in with an IC50 against mGluR5 receptor (pig) of 70 nM.

On to `O=C(C#Cc1cccc(Cl)c1)N(CCc1ccccc1)C1CC1` [Example 239, 3-(3-chlorophenyl)-N-cyclopropyl-N-phenethylpropiolamide], for which the IC50 against mGluR5 receptor (pig) was 280 nM.

`COc1ccccc1CCN(C)C(=O)C#Cc1cccc(Cl)c1` [Example 240, 3-(3-chlorophenyl)-N-(2-methoxyphenethyl)-N-methylpropiolamide] had an IC50 against mGluR5 receptor (pig) of 12 nM.

`CC(Cc1ccccc1)N(C)C(=O)C#Cc1cccc(Cl)c1` (stereo not shown) [Example 241, 3-(3-chlorophenyl)-N-methyl-N-(1-phenylpropane-2-yl)propiolamide] yielded an IC50 at mGluR5 receptor (pig) of 13 nM.

Turning to `CC(Cc1ccccc1)NC(=O)C#Cc1cccc(Cl)c1` (stereo not shown) [Example 242, 3-(3-chlorophenyl)-N-(1-phenylpropane-2-yl)propiolamide], the half-inhibitory concentration (IC50) on mGluR5 receptor (pig) turned out to be 2 nM.

For `CN(CCc1cccnc1)C(=O)C#Cc1cccc(Cl)c1` [Example 243, 3-(3-chlorophenyl)-N-methyl-N-(2-(pyridine-3-yl)ethyl)propiolamide], at mGluR5 receptor (pig), the IC50 stood at 12 nM.

At mGluR5 receptor (pig), `CN(CCc1ccncc1)C(=O)C#Cc1cccc(Cl)c1` [Example 244, 3-(3-chlorophenyl)-N-methyl-N-(2-(pyridine-4-yl)ethyl)propiolamide] yielded a concentration for half-maximal inhibition (IC50) of 23 nM.

Regarding `CN(CCc1cccs1)C(=O)C#Cc1cccc(Cl)c1` [Example 245, 3-(3-chlorophenyl)-N-methyl-N-(2-(thiophene-2-yl)ethyl)propiolamide], the midpoint of inhibition against mGluR5 receptor (pig), the IC50, lay at 11 nM.

`CC(Cc1cccnc1)NC(=O)C#Cc1cccc(Cl)c1` (stereo not shown) [Example 246, 3-(3-chlorophenyl)-N-(1-(pyridine-3-yl)propane-2-yl)propiolamide]: the IC50 at mGluR5 receptor (pig) worked out at 10 nM.

For the compound `CC(Cc1cccnc1)N(C)C(=O)C#Cc1cccc(Cl)c1` (stereo not shown) [Example 247, 3-(3-chlorophenyl)-N-methyl-N-(1-(pyridine-3-yl)propane-2-yl)propiolamide], on mGluR5 receptor (pig), the midpoint of inhibition, the IC50, lay at 140 nM.

For `Cc1ncccc1CCNC(=O)C#Cc1cccc(Cl)c1` [Example 248, 3-(3-chlorophenyl)-N-(2-(2-methylpyridine-3-yl)ethyl)propiolamide], it took 260 nM to reach half-maximal inhibition against mGluR5 receptor (pig) (IC50).

Turning to `Cc1ncccc1CCN(C)C(=O)C#Cc1cccc(Cl)c1` [Example 249, 3-(3-chlorophenyl)-N-methyl-N-(2-(2-methylpyridine-3-yl)ethyl)propiolamide], the IC50 against mGluR5 receptor (pig) turned out to be 120 nM.

For `O=C(C#Cc1cccc(Cl)c1)NCCc1ccccc1C(F)(F)F` [Example 250, 3-(3-chlorophenyl)-N-(2-(trifluoromethyl)phenethyl)propiolamide], it took 33 nM to reach half-maximal inhibition against mGluR5 receptor (pig) (IC50).

On to `CN(CCc1ccccc1C(F)(F)F)C(=O)C#Cc1cccc(Cl)c1` [Example 251, 3-(3-chlorophenyl)-N-methyl-N-(2-(trifluormethyl)phenethyl)propiolamide], for which it took 28 nM to reach half-maximal inhibition on mGluR5 receptor (pig) (IC50).
